Consider four compounds from US7666877B2, “Ergoline derivatives” (priority 2005, dated 2010).

Assay [1] has as its target T1, CXCR3 (Homo sapiens, UniProt P49682).
T1 sequence (P49682 1-368): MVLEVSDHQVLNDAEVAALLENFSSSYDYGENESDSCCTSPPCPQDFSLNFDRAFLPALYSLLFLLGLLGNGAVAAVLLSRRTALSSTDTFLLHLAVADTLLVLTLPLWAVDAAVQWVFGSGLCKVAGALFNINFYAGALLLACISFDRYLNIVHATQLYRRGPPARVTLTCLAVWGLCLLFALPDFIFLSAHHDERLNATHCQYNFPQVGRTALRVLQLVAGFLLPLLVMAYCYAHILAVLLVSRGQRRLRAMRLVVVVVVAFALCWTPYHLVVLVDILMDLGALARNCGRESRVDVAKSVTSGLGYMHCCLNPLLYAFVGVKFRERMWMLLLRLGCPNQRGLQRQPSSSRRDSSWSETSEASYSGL
Kind of assay: cell-based. Further details: expressed in transfected cells; host or cells: L1.2 cells (mouse pre-B cell line). As for the experimental part:
b) CXCR3 Functional Assay—Ca^2+ Mobilization
CXCR3 ligand-induced Ca^2+ mobilization is assessed in CXCR3 transfected L1.2 cells (a mouse pre B cell line). For this, cells are loaded with the Ca^2+-sensitive fluorochrome Fluo-4 (Molecular Probes). After washing, the cells are pre-incubated with low molecular weight inhibitors for 2 h at room temperature. The transient increase in intracellular Ca^2+ after the addition of the CXCR3 ligand (e.g. I-TAC) is monitored in a fluorescence image plate reader (FLIPR) instrument. The inhibition of CXCR3 ligand induced Ca^2+ mobilization in the presence of CXCR3 antagonists is reported as IC50 values i.e. the concentration of compound which reduces the maximal Ca^2+ response to 50%.

Assay [2] deals with T1, CXCR3. Kind of assay: biochemical. The class given is binding. Further details: expressed in transfected cells; host or cells: CHO cells (membrane preparation). As for the experimental part: a) CXCR3 Membrane Binding Assay
A ligand binding assay is used to identify inhibitors of I-TAC binding to CXCR3 expressing membranes. Cell membranes are prepared from CHO cells transfected with human CXCR3. The binding of the ^125I labeled CXCR3 ligand e.g. I-TAC (CXCL11) to CXCR3 is assessed using the Scintillation Proximity Assay (SPA) technology (Amersham Pharmacia Biotech). Buffer or serial dilutions of compound are incubated for 2 hours at room temperature with labeled CXCR3 ligand (e.g. I-TAC), CXCR3 expressing membranes and WGA coated PVT beads. The plates are then centrifuged and counted in a Topcount (Packard) instrument. The data are reported as the concentration of compound required to achieve 50% inhibition of ^125I ligand binding.

Assay [3] addresses T1, CXCR3. Kind of assay: CXCR3 functional assay - chemotaxis. It counts as cell-based. Further details: expressed in transfected cells; host or cells: L1.2 cells (mouse pre-B cell line). As to conditions: CXCR3 transfected L-1.2 cells; I-TAC; 4 h at 37° C.; read-out: IC50, concentration which leads to a reduction of migrated cells by 50%. How it is done: c) CXCR3 Functional Assay—Chemotaxis
The directed cell migration induced by CXCR3 ligands e.g. I-TAC is assessed using 96-well disposable chemotaxis chambers (Multiscreen MIC, Costar) with polycarbonate membranes containing pores of 5 μm diameter. Chemokine (e.g. I-TAC) is placed in the bottom well of the chamber and cells (e.g. CXCR3 transfected L-1.2 cells) are placed in the top compartment of the chemotaxis chamber. Cell migration across the porous membrane is allowed for 4 h at 37° C. Cells migrated from the top compartment to the bottom compartment are quantified by flow cytometry. When LMW inhibitors are tested, compounds are added to both compartments at the identical concentrations; Serial dilutions of compounds are tested to assess their inhibitory effect on CXCR3 dependent cell migration. The concentration of LMW CXCR3 inhibitors which leads to a reduction of migrated cells by 50% is reported as IC50. In this assay, the compounds of formula I have an IC50 value from 1 μM-1 nM.

Setting [4] is: CXCR3 transfected L1.2 cells (mouse pre B cell line), CXCR3 ligand (e.g. I-TAC), pre-incubation 2 h at room temperature, read-out: IC50, concentration of compound which reduces the maximal Ca2+ response to 50%.
Where [5] appears, read: membranes of CHO cells transfected with human CXCR3, 125I I-TAC (CXCL11), 2 hours at room temperature, read-out: IC50, concentration of compound required to achieve 50% inhibition of 125I ligand binding.

Molecules are shown by their SMILES.

For `O=C([C@@H]1C=C2c3cccc4[nH]cc(c34)C[C@H]2N(C(=O)Nc2ccccc2)C1)N1CCOCC1` [Example 43], the IC50 amounted to 16 nM on CXCR3 [1], 23 nM at CXCR3 [2] and 75 nM at CXCR3 [3].
Consider `O=C([C@@H]1C=C2c3cccc4[nH]cc(c34)C[C@H]2N(C(=O)Nc2ccccc2F)C1)N1CCCC1` [Example 59], for which the IC50 on CXCR3 [1] (setting [4]) was 20 nM; on CXCR3 [2] (setting [5]), 43 nM.
Turning to `O=C([C@@H]1C=C2c3cccc4[nH]cc(c34)C[C@H]2N(C(=O)Nc2ccccc2)C1)N1CCC1` [Example 23], the figures for the IC50 on CXCR3 [1] (setting [4]) and on CXCR3 [2] (setting [5]) were 8 nM and 61 nM, respectively.
Take `CC(C)OC(=O)Cn1cc2c3c(cccc31)C1=C[C@@H](C(=O)N3CCCC3)CN(C(=O)Nc3ccccc3)[C@@H]1C2` [Example 79, [(6aR,9R)-7-Phenylcarbamoyl-9-(pyrrolidine-1-carbonyl)-6a,7,8,9-tetrahydro-6H-indolo[4,3-fg]quinolin-4-yl]-acetic acid isopropyl ester]: the IC50 on CXCR3 [1] stood at 53 nM; against CXCR3 [2], 145 nM.
